Experimental data as given in the NIST ThermoML archive (doi:10.1021/acs.jced.7b01125).
Numbers after ± are expanded uncertainties.

Experiment: xn = mol fraction of the nth substance listed
Conditions: Gas, Buoyancy - hydrostatic balance with magnetic suspension - one sinker

## [HH] [hydrogen] + C
240.07 K, 999 kPa, x2 = 0.9
  mass density: 7.556 ± 0.047 kg/m3
240.07 K, 1000 kPa, x2 = 0.4997
  mass density: 4.558 ± 0.034 kg/m3
240.07 K, 1999 kPa, x2 = 0.9
  mass density: 15.591 ± 0.049 kg/m3
240.07 K, 2000 kPa, x2 = 0.4997
  mass density: 9.174 ± 0.034 kg/m3
240.07 K, 3001 kPa, x2 = 0.9
  mass density: 24.162 ± 0.052 kg/m3
240.07 K, 3002 kPa, x2 = 0.4997
  mass density: 13.857 ± 0.037 kg/m3
240.07 K, 4001 kPa, x2 = 0.9
  mass density: 33.3 ± 0.055 kg/m3
240.07 K, 4003 kPa, x2 = 0.4997
  mass density: 18.584 ± 0.039 kg/m3
240.07 K, 5000 kPa, x2 = 0.4997
  mass density: 23.326 ± 0.043 kg/m3
240.07 K, 5001 kPa, x2 = 0.9
  mass density: 43.067 ± 0.058 kg/m3
240.07 K, 6003 kPa, x2 = 0.4997
  mass density: 28.124 ± 0.048 kg/m3
240.07 K, 6003 kPa, x2 = 0.9
  mass density: 53.504 ± 0.062 kg/m3
240.07 K, 7000 kPa, x2 = 0.4997
  mass density: 32.918 ± 0.054 kg/m3
240.07 K, 7005 kPa, x2 = 0.9
  mass density: 64.62 ± 0.067 kg/m3
240.07 K, 8003 kPa, x2 = 0.4997
  mass density: 37.747 ± 0.061 kg/m3
240.07 K, 9002 kPa, x2 = 0.4997
  mass density: 42.553 ± 0.069 kg/m3
240.07 K, 10006 kPa, x2 = 0.4997
  mass density: 47.368 ± 0.077 kg/m3
240.07 K, 11006 kPa, x2 = 0.4997
  mass density: 52.137 ± 0.086 kg/m3
240.07 K, 11011 kPa, x2 = 0.9499
  mass density: 128.048 ± 0.085 kg/m3
240.07 K, 12005 kPa, x2 = 0.4997
  mass density: 56.857 ± 0.095 kg/m3
240.07 K, 12014 kPa, x2 = 0.9499
  mass density: 142.433 ± 0.083 kg/m3
240.07 K, 13003 kPa, x2 = 0.4997
  mass density: 61.522 ± 0.1 kg/m3
240.07 K, 13016 kPa, x2 = 0.9499
  mass density: 155.953 ± 0.081 kg/m3
240.07 K, 14011 kPa, x2 = 0.4997
  mass density: 66.173 ± 0.11 kg/m3
240.07 K, 14016 kPa, x2 = 0.9499
  mass density: 168.365 ± 0.078 kg/m3
240.07 K, 15002 kPa, x2 = 0.4997
  mass density: 70.674 ± 0.12 kg/m3
240.07 K, 15021 kPa, x2 = 0.9499
  mass density: 179.661 ± 0.075 kg/m3
240.07 K, 16013 kPa, x2 = 0.4997
  mass density: 75.179 ± 0.12 kg/m3
240.07 K, 16020 kPa, x2 = 0.9499
  mass density: 189.762 ± 0.072 kg/m3
240.07 K, 17008 kPa, x2 = 0.4997
  mass density: 79.535 ± 0.13 kg/m3
240.07 K, 17018 kPa, x2 = 0.9
  mass density: 179.188 ± 0.077 kg/m3
240.07 K, 17021 kPa, x2 = 0.9499
  mass density: 198.87 ± 0.07 kg/m3
240.07 K, 18016 kPa, x2 = 0.4997
  mass density: 83.857 ± 0.14 kg/m3
240.07 K, 18016 kPa, x2 = 0.9499
  mass density: 207.026 ± 0.069 kg/m3
240.07 K, 18030 kPa, x2 = 0.9
  mass density: 187.542 ± 0.075 kg/m3
240.07 K, 19008 kPa, x2 = 0.4997
  mass density: 88.009 ± 0.14 kg/m3
240.07 K, 19013 kPa, x2 = 0.9499
  mass density: 214.425 ± 0.068 kg/m3
240.07 K, 19032 kPa, x2 = 0.9
  mass density: 195.115 ± 0.074 kg/m3
240.07 K, 19589 kPa, x2 = 0.9
  mass density: 199.054 ± 0.074 kg/m3
240.07 K, 19703 kPa, x2 = 0.4997
  mass density: 90.858 ± 0.14 kg/m3
240.07 K, 19891 kPa, x2 = 0.9499
  mass density: 220.394 ± 0.067 kg/m3
240.08 K, 999 kPa, x2 = 0.9499
  mass density: 7.937 ± 0.049 kg/m3
240.08 K, 1998 kPa, x2 = 0.9499
  mass density: 16.447 ± 0.051 kg/m3
240.08 K, 3000 kPa, x2 = 0.9499
  mass density: 25.62 ± 0.055 kg/m3
240.08 K, 3999 kPa, x2 = 0.9499
  mass density: 35.505 ± 0.059 kg/m3
240.08 K, 5004 kPa, x2 = 0.9499
  mass density: 46.287 ± 0.063 kg/m3
240.08 K, 6000 kPa, x2 = 0.9499
  mass density: 57.87 ± 0.068 kg/m3
240.08 K, 7002 kPa, x2 = 0.9499
  mass density: 70.478 ± 0.073 kg/m3
240.08 K, 8004 kPa, x2 = 0.9499
  mass density: 84.026 ± 0.078 kg/m3
240.08 K, 8008 kPa, x2 = 0.9
  mass density: 76.371 ± 0.07 kg/m3
240.08 K, 9003 kPa, x2 = 0.9499
  mass density: 98.317 ± 0.082 kg/m3
240.08 K, 9004 kPa, x2 = 0.9
  mass density: 88.565 ± 0.074 kg/m3
240.08 K, 10004 kPa, x2 = 0.9
  mass density: 101.131 ± 0.077 kg/m3
240.08 K, 10007 kPa, x2 = 0.9499
  mass density: 113.159 ± 0.085 kg/m3
240.08 K, 11012 kPa, x2 = 0.9
  mass density: 113.893 ± 0.079 kg/m3
240.08 K, 12006 kPa, x2 = 0.9
  mass density: 126.282 ± 0.081 kg/m3
240.08 K, 13016 kPa, x2 = 0.9
  mass density: 138.41 ± 0.081 kg/m3
240.08 K, 14006 kPa, x2 = 0.9
  mass density: 149.671 ± 0.08 kg/m3
240.08 K, 15020 kPa, x2 = 0.9
  mass density: 160.417 ± 0.079 kg/m3
240.08 K, 16024 kPa, x2 = 0.9
  mass density: 170.25 ± 0.078 kg/m3
250.03 K, 1001 kPa, x2 = 0.4997
  mass density: 4.372 ± 0.033 kg/m3
250.03 K, 2000 kPa, x2 = 0.4997
  mass density: 8.784 ± 0.034 kg/m3
250.03 K, 2990 kPa, x2 = 0.4997
  mass density: 13.19 ± 0.036 kg/m3
250.03 K, 4000 kPa, x2 = 0.4997
  mass density: 17.721 ± 0.038 kg/m3
250.03 K, 5000 kPa, x2 = 0.4997
  mass density: 22.235 ± 0.041 kg/m3
250.03 K, 7001 kPa, x2 = 0.4997
  mass density: 31.315 ± 0.05 kg/m3
250.03 K, 8002 kPa, x2 = 0.4997
  mass density: 35.861 ± 0.056 kg/m3
250.04 K, 999 kPa, x2 = 0.9499
  mass density: 7.587 ± 0.047 kg/m3
250.04 K, 1999 kPa, x2 = 0.9499
  mass density: 15.652 ± 0.049 kg/m3
250.04 K, 3000 kPa, x2 = 0.9
  mass density: 22.884 ± 0.049 kg/m3
250.04 K, 3002 kPa, x2 = 0.9499
  mass density: 24.252 ± 0.052 kg/m3
250.04 K, 4000 kPa, x2 = 0.9
  mass density: 31.364 ± 0.052 kg/m3
250.04 K, 4006 kPa, x2 = 0.9499
  mass density: 33.422 ± 0.055 kg/m3
250.04 K, 5002 kPa, x2 = 0.9
  mass density: 40.328 ± 0.054 kg/m3
250.04 K, 5005 kPa, x2 = 0.9499
  mass density: 43.167 ± 0.058 kg/m3
250.04 K, 5999 kPa, x2 = 0.4997
  mass density: 26.765 ± 0.045 kg/m3
250.04 K, 6001 kPa, x2 = 0.9499
  mass density: 53.515 ± 0.062 kg/m3
250.04 K, 6004 kPa, x2 = 0.9
  mass density: 49.775 ± 0.057 kg/m3
250.04 K, 7002 kPa, x2 = 0.9
  mass density: 59.655 ± 0.06 kg/m3
250.04 K, 7002 kPa, x2 = 0.9499
  mass density: 64.575 ± 0.066 kg/m3
250.04 K, 8004 kPa, x2 = 0.9
  mass density: 70.009 ± 0.063 kg/m3
250.04 K, 9002 kPa, x2 = 0.4997
  mass density: 40.398 ± 0.062 kg/m3
250.04 K, 9006 kPa, x2 = 0.9499
  mass density: 88.515 ± 0.072 kg/m3
250.04 K, 9011 kPa, x2 = 0.9
  mass density: 80.795 ± 0.066 kg/m3
250.04 K, 10001 kPa, x2 = 0.4997
  mass density: 44.91 ± 0.069 kg/m3
250.04 K, 10014 kPa, x2 = 0.9
  mass density: 91.789 ± 0.068 kg/m3
250.04 K, 11004 kPa, x2 = 0.4997
  mass density: 49.405 ± 0.076 kg/m3
250.04 K, 11010 kPa, x2 = 0.9
  mass density: 102.827 ± 0.07 kg/m3
250.04 K, 12004 kPa, x2 = 0.4997
  mass density: 53.836 ± 0.084 kg/m3
250.04 K, 13005 kPa, x2 = 0.4997
  mass density: 58.27 ± 0.091 kg/m3
250.04 K, 14003 kPa, x2 = 0.4997
  mass density: 62.615 ± 0.098 kg/m3
250.04 K, 15009 kPa, x2 = 0.4997
  mass density: 66.921 ± 0.1 kg/m3
250.04 K, 16007 kPa, x2 = 0.4997
  mass density: 71.14 ± 0.11 kg/m3
250.04 K, 17008 kPa, x2 = 0.4997
  mass density: 75.293 ± 0.12 kg/m3
250.04 K, 18013 kPa, x2 = 0.4997
  mass density: 79.385 ± 0.12 kg/m3
250.04 K, 19258 kPa, x2 = 0.4997
  mass density: 84.34 ± 0.13 kg/m3
250.05 K, 1000 kPa, x2 = 0.9
  mass density: 7.23 ± 0.045 kg/m3
